One assay relates to giant foxtail. The experiment in a line: Test A pre-/postemergence herbicide test. In kind it is in vivo, Setaria faberii. The note with it: for pest or weed control at 125 g/ha / pest or weed control at 500 g/ha: Setaria faberi, 240 h, read-out: Plant response rating, Foxtail, Giant. In outline: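 Visual 0–100 ratings (100 = complete control) made about 10 days after treatment, greenhouse-held plants compared with untreated controls. Treatments: postemergence sprays on one- to two-leaf plants (2–10 cm tall) and preemergence directed soil sprays after planting in loam–sand, chemicals formulated in non-phytotoxic solvent containing surfactant.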

The next assay deals with sedge, umbrella. As to the kind of experiment: Test B flooded paddy test. It is filed as in vivo, Cyperus difformis. The conditions noted are these: Flood, scale of 0 to 100 where 0 is no effect and 100 is complete control. In short, it runs like this: (§1)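 Treatment was made at the 2-leaf stage by dosing the standing floodwater, kept 3 cm above soil level for the whole test. Greenhouse exposure lasted 13 to 15 days. Response is a visual percent rating relative to controls, where a dash indicates no test result.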

Assay [1] relates to barnyardgrass. The experiment in a line: Test B flooded paddy test. The note with it: Flood, scale of 0 to 100 where 0 is no effect and 100 is complete control. In kind it is in vivo, Echinochloa crus-galli. In short, it runs like this:
as §1

The test system of another assay is waterhemp. As to the kind of experiment: Test C pre-/postemergence herbicide test. In kind it is in vivo, Amaranthus rudis. In short, it runs like this:
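Greenhouse plants scored visually against untreated controls 13–15 days after treatment, 0 = no effect, 100 = complete control. Test chemicals in a non-phytotoxic solvent with surfactant were applied either to soil (loam/sand) at planting or to foliage of 1- to 4-leaf plants, 2–18 cm tall.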

The subject of assay [2] is barnyardgrass. As to the kind of experiment: Test C flooded paddy test. In kind it is in vivo, Echinochloa crus-galli. The conditions noted are these: Flood. In outline: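 Plants at the 2-leaf stage in pots flooded to 3 cm were treated by applying compound directly to the paddy water, with depth held throughout. After 13 to 15 days in a greenhouse, response was rated visually against controls on a 0 (no effect) to 100 (complete control) scale.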

The mark [3] stands for this setting: Postemergence, 125 g ai/ha, 0 to 100 scale, 0 no effect, 100 complete control.
The mark [4] stands for this setting: Postemergence, 500 g ai/ha, 0 to 100 scale (0 no effect, 100 complete control).
Setting [5] is: Preemergence, 125 g ai/ha, visual rating on 0 to 100 scale (0 no effect, 100 complete control).
Where [6] appears, read: preemergence, 500 g ai/ha, 0 to 100 scale.
The mark [7] stands for this setting: Preemergence, 31 g ai/ha, scale 0 to 100, 0 is no effect and 100 is complete control.
Where [8] appears, read: Preemergence, 62 g ai/ha, scale 0 to 100.
Where [9] appears, read: Preemergence, 125 g ai/ha, scale 0 to 100 (0 no effect, 100 complete control).
Where [10] appears, read: 125 g ai/ha, visual rating, 0 to 100 scale, 0 no effect, 100 complete control, approximately 10 days, preemergence.
Where [11] appears, read: Postemergence, 31 g ai/ha, scale 0 to 100 (0 no effect, 100 complete control).
[12] abbreviates: Postemergence, 62 g ai/ha, scale 0 (no effect) to 100 (complete control).
The mark [13] stands for this setting: Postemergence, 125 g ai/ha, scale 0 to 100 (0 no effect, 100 complete control).
[14] abbreviates: Postemergence, 250 g ai/ha, scale 0 to 100 (0 no effect, 100 complete control).
Where [15] appears, read: 62 g ai/ha, scale of 0 to 100 where 0 is no effect and 100 is complete control, 13 to 15 days.
[16] abbreviates: 125 g ai/ha, scale of 0 to 100 where 0 is no effect and 100 is complete control, 13 to 15 days.
The mark [17] stands for this setting: 250 g ai/ha, scale of 0 to 100 where 0 is no effect and 100 is complete control, 13 to 15 days.
The mark [18] stands for this setting: post-emergence, Postemergence, 125 g ai/ha, 0 to 100 scale, 0 no effect, 100 complete control.
[19] abbreviates: post-emergence, Postemergence, 500 g ai/ha, 0 to 100 scale (0 no effect, 100 complete control).
Setting [20] is: pre-emergence, preemergence, 500 g ai/ha, 0 to 100 scale.
Where [21] appears, read: 31 g ai/ha, scale of 0 to 100 where 0 is no effect and 100 is complete control, 13 to 15 days.
Where [22] appears, read: Postemergence, 125 g ai/ha, visual rating on 0 to 100 scale (0 no effect, 100 complete control), approx. 10 days.
The mark [23] stands for this setting: Preemergence, 125 g ai/ha, 0 to 100 scale where 0 is no effect and 100 is complete control.
Where [24] appears, read: Preemergence, 500 g ai/ha, visual rating on 0 to 100 scale (0 no effect, 100 complete control).
The mark [25] stands for this setting: Preemergence, 62 g ai/ha, scale 0 to 100 (0 no effect, 100 complete control).

Like-named read-outs stand apart in the source and are kept apart here.

For the compound `O=C1NCC(c2ccc(F)c(C(F)(F)F)c2)C1C(=O)Nc1cccc(F)c1F` (racemic) [Compound 77], the “Plant response rating, Foxtail, Giant” value was 80 in the assay on giant foxtail (setting [3]), 80 in the assay with giant foxtail (setting [4]) and 90 in the assay with giant foxtail (setting [6]). Also, the “Foxtail, Giant plant response rating” value in the assay on giant foxtail (setting [5]) amounted to 90. Besides, the “Plant response rating, Sedge, Umbrella” value in the assay on sedge, umbrella (250 g ai/ha) is on record as 0. Further, the “Plant response rating, Barnyardgrass” value in the assay with barnyardgrass [1] (250 g ai/ha) came to 20; with barnyardgrass [2] (250 g ai/ha, scale 0 to 100), 20; in the assay on barnyardgrass [2] (500 g ai/ha, scale 0 to 100), 30; in the assay on barnyardgrass [2] (1000 g ai/ha, scale 0 to 100), 40; in the assay with barnyardgrass [2] (2000 g ai/ha, scale 0 to 100), 70. For the same compound, the “Waterhemp plant response rating” value in the assay on waterhemp (setting [7]) was 40. For the same compound, the “Plant response rating, Waterhemp” value in the assay with waterhemp (setting [8]) was 40; with waterhemp (setting [9]) it was 70. In addition, the “Plant response rating (scale of 0 to 100), Waterhemp” value in the assay on waterhemp (Preemergence, 250 g ai/ha) is 85.

Turning to `O=C1NCC(c2ccc(F)cc2)C1C(=O)Nc1ccc(F)c(F)c1F` (racemic) [Compound 120], the “Plant response rating, Foxtail, Giant” value turned out to be 90 with giant foxtail (setting [10]), 80 in the assay on giant foxtail (setting [3]) and 90 in the assay with giant foxtail (setting [6]). Besides, the “Foxtail, Giant plant response rating (0 to 100 scale, 0 is no effect, 100 is complete control)” value in the assay with giant foxtail (Postemergence, 500 g ai/ha) is 90. Moreover, in the assay with sedge, umbrella (500 g ai/ha), the “Plant response rating, Sedge, Umbrella” value was found to be 0. For the same compound, the “Plant response rating, Barnyardgrass” value in the assay on barnyardgrass [1] (500 g ai/ha) worked out at 80; with barnyardgrass [2] (setting [15]), 40; in the assay with barnyardgrass [2] (setting [16]), 50; in the assay on barnyardgrass [2] (250 g ai/ha, scale 0 to 100), 60; in the assay on barnyardgrass [2] (500 g ai/ha, scale 0 to 100), 75. For the same compound, the “Plant response rating, Waterhemp” value with waterhemp (setting [11]) came to 0; in the assay with waterhemp (setting [12]), 0; with waterhemp (setting [13]), 15; in the assay with waterhemp (setting [14]) it was 20; in the assay on waterhemp (setting [8]), 60; with waterhemp (setting [9]) it was 75. For the same compound, the “Waterhemp plant response rating” value in the assay with waterhemp (setting [7]) is given as 0. Also, the “Plant response rating (scale of 0 to 100), Waterhemp” value with waterhemp (Preemergence, 250 g ai/ha) came to 85.

Consider `O=C1NCC(c2cccc(C(F)F)c2)C1C(=O)Nc1ccccc1F` (racemic) [Compound 210], for which the “Plant response rating, Foxtail, Giant” value in the assay on giant foxtail (setting [10]) stood at 80; in the assay with giant foxtail (Postemergence, 125 g ai/ha, 0 to 100 scale, 0 is no effect, 100 is complete control), 50; in the assay with giant foxtail (preemergence, 500 g ai/ha, 0 to 100 scale, 0 is no effect and 100 is complete control), 90. In addition, the “Foxtail, Giant plant response rating (0 to 100 scale, 0 is no effect, 100 is complete control)” value in the assay with giant foxtail (Postemergence, 500 g ai/ha) was found to be 90. The “Plant response rating, Barnyardgrass” value was determined as 0 with barnyardgrass [2] (setting [16]); 45 with barnyardgrass [2] (setting [17]); 70 in the assay with barnyardgrass [2] (500 g ai/ha, scale 0 to 100); 75 in the assay on barnyardgrass [2] (1000 g ai/ha, scale 0 to 100).

Turning to `O=C1NCCC1C(=O)N(c1ccc(F)c(F)c1)c1ccccc1F` (stereo not drawn) [Compound 5, N-(3,4-difluorophenyl)-N-(2-fluorophenyl)-2-oxo-3-pyrrolidinecarboxamide], the “Foxtail, Giant plant response rating” value in the assay with giant foxtail (setting [5]) is 90. Moreover, in the assay on giant foxtail (setting [18]), the pest or weed control at 125 g/ha came out at 80%. The pest or weed control at 500 g/ha in the assay with giant foxtail (setting [19]) was determined as 80%; in the assay with giant foxtail (setting [20]), 100%. The “Plant response rating, Barnyardgrass” value with barnyardgrass [2] (setting [15]) turned out to be 0; in the assay on barnyardgrass [2] (setting [16]), 20; in the assay on barnyardgrass [2] (250 g ai/ha, scale 0 to 100) it was 55.

For the compound `O=C1NCC(Br)(c2ccccc2)C1C(=O)Nc1ccccc1F` (stereo not drawn) [Compound 92, 4-bromo-N-(2-fluorophenyl)-2-oxo-4-phenyl-3-pyrrolidinecarboxamide], the “Foxtail, Giant plant response rating” value in the assay with giant foxtail (setting [5]) is 0. The pest or weed control at 125 g/ha in the assay with giant foxtail (setting [18]) stood at 0%. In addition, the pest or weed control at 500 g/ha with giant foxtail (setting [19]) is 10%; in the assay with giant foxtail (setting [20]), 90%. For the same compound, the “Plant response rating, Barnyardgrass” value amounted to 10 in the assay on barnyardgrass [2] (setting [21]); 10 with barnyardgrass [2] (setting [15]); 10 with barnyardgrass [2] (setting [16]); 10 in the assay on barnyardgrass [2] (250 g ai/ha, scale 0 to 100).

In the case of `O=C1NCC(c2ccccc2)C1(Br)C(=O)Nc1ccccc1F` (stereo not drawn) [Compound 93, 3-bromo-N-(2-fluorophenyl)-2-oxo-4-phenyl-3-pyrrolidinecarboxamide], in the assay with giant foxtail (setting [5]), the “Foxtail, Giant plant response rating” value worked out at 80. For the same compound, the pest or weed control at 125 g/ha in the assay on giant foxtail (setting [18]) was found to be 10%. For the same compound, the pest or weed control at 500 g/ha worked out at 60% in the assay with giant foxtail (setting [19]) and 90% in the assay with giant foxtail (setting [20]). In addition, the “Plant response rating, Barnyardgrass” value in the assay on barnyardgrass [2] (setting [21]) was determined as 0; with barnyardgrass [2] (setting [15]), 0; in the assay on barnyardgrass [2] (setting [16]) it was 0; in the assay on barnyardgrass [2] (250 g ai/ha, scale 0 to 100) it was 40.

For `CN1CC(c2ccc(F)c(F)c2)C(C(=O)Nc2cccc(F)c2F)C1=O` (stereo not drawn) [Compound 303], the “Plant response rating, Foxtail, Giant” value is reported as 80 with giant foxtail (setting [22]), 80 with giant foxtail (setting [4]) and 90 in the assay on giant foxtail (setting [23]). In the assay with giant foxtail (setting [24]), the “Foxtail, Giant plant response rating” value came to 90. For the same compound, in the assay with sedge, umbrella (500 g ai/ha), the “Plant response rating, Sedge, Umbrella” value is listed as 0. Besides, the “Plant response rating, Barnyardgrass” value with barnyardgrass [1] (500 g ai/ha) worked out at 80; in the assay on barnyardgrass [2] (setting [21]), 0; in the assay on barnyardgrass [2] (setting [15]), 20; in the assay with barnyardgrass [2] (setting [16]) it was 60; with barnyardgrass [2] (setting [17]), 70. Besides, the “Plant response rating, Waterhemp” value with waterhemp (setting [11]) is given as 0; in the assay on waterhemp (setting [12]) it was 35; with waterhemp (setting [13]), 0; in the assay on waterhemp (setting [14]) it was 25; in the assay on waterhemp (setting [9]) it was 65. Further, the results for the “Waterhemp plant response rating” value with waterhemp (setting [7]) and in the assay on waterhemp (setting [25]) were 40 and 65, respectively. Moreover, the “Plant response rating (scale of 0 to 100), Waterhemp” value in the assay with waterhemp (Preemergence, 250 g ai/ha) is given as 75.

As for `CC(C)c1cccc(C2CNC(=O)C2C(=O)Nc2ccccc2F)c1` (stereo not drawn) [Compound 318], the “Plant response rating, Foxtail, Giant” value amounted to 40 in the assay on giant foxtail (setting [22]), 70 in the assay with giant foxtail (setting [4]) and 90 with giant foxtail (setting [23]). In the assay with giant foxtail (setting [24]), the “Foxtail, Giant plant response rating” value is given as 90. Besides, the “Plant response rating, Sedge, Umbrella” value in the assay with sedge, umbrella (500 g ai/ha) is 0. Also, the “Plant response rating, Barnyardgrass” value in the assay on barnyardgrass [1] (500 g ai/ha) stood at 75; in the assay with barnyardgrass [2] (setting [21]), 20; with barnyardgrass [2] (setting [15]), 30; in the assay on barnyardgrass [2] (setting [16]) it was 60; with barnyardgrass [2] (setting [17]), 70. The “Waterhemp plant response rating” value in the assay with waterhemp (setting [25]) came to 30. In addition, the “Plant response rating, Waterhemp” value with waterhemp (Preemergence, 125 g ai/ha, scale 0 to 100) is listed as 10.

For the origin of these results see US10294202B2, “Pyrrolidinones as herbicides” (FMC Corporation, priority 2013, dated 2019).
